From a compilation of properties of binary mixtures (doi:10.1039/c5cp02799c)

Test: xn = mol fraction of the nth substance listed
Settings: 101.3 kPa

CC[P+](CC)(CC)CCOC.O=S(=O)([N-]S(=O)(=O)C(F)(F)F)C(F)(F)F + O=S(=O)([N-]S(=O)(=O)C(F)(F)F)C(F)(F)F.[Li+]
Settings	electrical conductivity [S/m]	viscosity [mPa·s]
298.2 K, x2 = 0.39	0.51	620
300.1 K, x2 = 0.39	–	540
300.2 K, x2 = 0.25	–	150
300.2 K, x2 = 0.39	0.55	–
300.3 K, x2 = 0.25	1.1	–
306.1 K, x2 = 0.39	–	360
306.2 K, x2 = 0.25	1.2	–
306.2 K, x2 = 0.39	0.68	–
306.3 K, x2 = 0.25	–	110
312.2 K, x2 = 0.25	–	81
312.3 K, x2 = 0.25	1.3	–
312.3 K, x2 = 0.39	–	250
318.1 K, x2 = 0.39	–	180
318.2 K, x2 = 0.39	0.91	–
318.3 K, x2 = 0.25	1.4	61
324.2 K, x2 = 0.25	–	47
324.2 K, x2 = 0.39	1	130
324.3 K, x2 = 0.25	1.4	–
330.2 K, x2 = 0.39	1.1	95
330.3 K, x2 = 0.25	1.5	37
336.2 K, x2 = 0.39	1.2	72
336.3 K, x2 = 0.25	1.6	30
341.1 K, x2 = 0.39	–	58
341.3 K, x2 = 0.25	–	25
348.2 K, x2 = 0.25	1.7	20
348.2 K, x2 = 0.39	1.3	45
355.2 K, x2 = 0.39	–	34
361.2 K, x2 = 0.39	–	28
361.3 K, x2 = 0.25	1.8	14
374.2 K, x2 = 0.39	–	19
374.3 K, x2 = 0.25	–	10

CCCCC[P+](CC)(CC)CC.O=S(=O)([N-]S(=O)(=O)C(F)(F)F)C(F)(F)F + O=S(=O)([N-]S(=O)(=O)C(F)(F)F)C(F)(F)F.[Li+]
Settings	electrical conductivity [S/m]	viscosity [mPa·s]
298.2 K, x2 = 0.25	0.062	–
298.2 K, x2 = 0.39	0.016	1300
298.3 K, x2 = 0.25	–	310
300.2 K, x2 = 0.25	–	270
300.2 K, x2 = 0.39	0.019	–
300.3 K, x2 = 0.25	0.075	–
306.2 K, x2 = 0.25	0.1	–
306.2 K, x2 = 0.39	0.028	670
306.3 K, x2 = 0.25	–	180
312.2 K, x2 = 0.39	0.041	–
312.3 K, x2 = 0.25	0.14	130
312.3 K, x2 = 0.39	–	440
318.2 K, x2 = 0.39	0.058	290
318.3 K, x2 = 0.25	0.18	95
324.3 K, x2 = 0.25	0.23	71
330.3 K, x2 = 0.25	0.29	–
330.4 K, x2 = 0.25	–	54
336.2 K, x2 = 0.39	0.15	110
341.2 K, x2 = 0.39	–	85
348.2 K, x2 = 0.39	0.24	63
355.2 K, x2 = 0.39	–	47
355.3 K, x2 = 0.25	–	21
361.3 K, x2 = 0.25	0.73	–
361.4 K, x2 = 0.25	–	18
374.2 K, x2 = 0.25	–	12
374.2 K, x2 = 0.39	–	24
